In experiment [1] the test system is Colo320. Nature of the experiment: In vitro cytotoxicity, Colo320 cells (MTT). In kind it is cell-based, human. The conditions noted are these: for IC50: 72 h exposure; for Selectivity ratio IC50 (Colo205)/IC50 (Colo320): calculated from IC50 values in Table 4. From the text:
(§1) Cell lines: all cell culture reagents were obtained from Sigma-Aldrich; plasticware was purchased from Sarstedt (Nümbrecht, Germany); Human colon Colo205 (chemo-sensitive, ATCC-CCL-222) and Colo320 (Pgp/MDR1-expressing, doxorubicin-resistant, ATCC-CCL-220.1) adenocarcinoma cell lines were purchased from LGC Promochem, Teddington, UK; MES-SA and MES-SA/Dx5 uterine sarcoma cell lines were obtained from ATCC, where they were characterized by DNA fingerprinting. The expression of the Pgp efflux pump of MES-SA/Dx5 was proven by Western blot analysis in our former report, and was also reported for the Colo320 cells. The MES-SA and MES-SA/Dx5 cells used in this study were previously engineered to express the fluorescent proteins mCherry and eGFP, respectively, by lentiviral transduction.
(§2) The colon adenocarcinoma cells were cultured in RPMI 1640 medium supplemented with 10% heat-inactivated fetal bovine serum, 2 mM L-glutamine, 1 mM sodium pyruvate, and 100 mM HEPES. The cells were incubated at 37 °C, in a 5% CO2, 95% air atmosphere.
(§3) Cytotoxicity assays: The tested compounds were dissolved in PBS buffer to prepare 5 mM stock solutions, which were diluted in complete culture medium.
(§4) In the case of the Colo205 and Colo320 cells, two-fold serial dilutions were prepared in 100 μL medium. The semi-adherent colon adenocarcinoma cells were treated with Trypsin-Versene (EDTA) solution. They were adjusted to a density of 1 × 10^4 cells in 100 μL of RPMI 1640 medium and were added to each well, with the exception of the medium control wells. The final volume of the wells containing compounds and cells was 200 μL. The plates containing Colo205 and Colo320 cells were incubated at 37 °C for 72 h; at the end of the incubation period, 20 μL of 3-(4,5-dimethyl-2-thiazolyl)-2,5-diphenyl-2H-tetrazolium bromide (MTT) solution (from a stock solution of 5 mg/mL) was added to each well. After incubation at 37 °C for 4 h, 100 μL of sodium dodecyl sulfate (SDS) solution (10% in 0.01 M HCI) was added to each well, and the plates were further incubated at 37 °C overnight. Cell growth was determined by measuring the optical density (OD) at 540/630 nm with a Multiskan EX plate reader (Thermo Labsystems, Cheshire, WA, USA).
(§5) Inhibition of the cell growth (expressed as IC50: inhibitory concentration that reduces by 50% the growth of the cells exposed to the tested compounds) was determined from the sigmoid curve where 100 − ((ODsample − ODmedium control)/(ODcell control − ODmedium control)) × 100 values were plotted against the logarithm of compound concentrations. Curves for the data obtained on Colo205 and Colo320 cells were fitted by GraphPad Prism software (2021, Graphpad Software, version 7.00, San Diego, CA, USA) using the sigmoidal dose–response model (comparing variable and fixed slopes). From the MES-SA cell data, the IC50 values were calculated by our custom program, written by J. Sessler in C#. The p values were calculated by Student’s t-test. The IC50 values were always obtained from at least three independent experiments.

Experiment [2] is described as follows: Complex formation kinetics (UV-vis, tandem cuvette). In kind it is physicochemical. The conditions noted are these: 50 μM triaqua complex + 50 μM ligand. Here is the method:
The complex formation kinetics for the RhCp* and RuCym complexes was also assayed and compared at pH 1 and 4 (Figure S20). UV-vis spectral changes were followed in time after the triaqua complex [M(arene)(H2O)3]^2+ (50 μM) and the ligand (50 μM) were mixed in a tandem cuvette. The equilibrium was reached much faster in the case of the RhCp* complex (~5 min at pH 1, ~1 min at pH 4), as compared to the RuCym complex (~7 h at pH 1, ~45 min at pH 4).

The test system of experiment [3] is MES-SA/Dx5. Kind of experiment: In vitro cytotoxicity, MES-SA/Dx5 cells (fluorescent protein readout). In kind it is cell-based, human. The settings on record: for IC50: 144 h exposure; for Selectivity ratio IC50 (MES-SA)/IC50 (MES-SA/Dx5): calculated from IC50 values in Table 4.
Source text: as §1
(§6) MES-SA cell lines were maintained in DMEM, supplemented with 10% fetal bovine serum, 5 mmol/L glutamine, and 50 units/mL penicillin and streptomycin. Cells were tested and resulted negative for mycoplasma contamination with the MycoAlert mycoplasma detection Kit (Lonza Group, Basel, Switzerland). One week prior to the cytotoxicity assays, Dx5 eGFP cells were selected in 500 nM doxorubicin for one passage to ensure the overexpression of P-glycoprotein.
as §3
(§7) In the case of the MES-SA and MES-SA/Dx5 cells, cell suspensions of the fluorescent cell lines were pre-mixed in a 1:1 ratio and seeded in 20 µL medium in a density of 2500 cells/well (1250 cells/well each) in a 384-well plate. After an overnight incubation, a serial dilution of the compounds was added to the plate in a final volume of 60 µL. The P-gp inhibitor tariquidar was added to the cells 15 min prior to the test compounds. After 144 h of incubation, plates were measured for the fluorescent intensity of mCherry (EX/EM: 585 nm/610 nm) and eGFP (EX/EM: 485 nm/510 nm). Cell seeding, aspiration of medium, and addition of drugs were performed by a Hamilton StarLet automated liquid handling robot.
as §5

In experiment [4] the test system is Colo205. Nature of the experiment: In vitro cytotoxicity, Colo205 cells (MTT). The conditions noted are these: 72 h exposure. In kind it is cell-based, human.
Source text: as §1, §2, §3, §4
Inhibition of the cell growth (expressed as IC50: inhibitory concentration that reduces by 50% the growth of the cells exposed to the tested compounds) was determined from the sigmoid curve where 100 − ((ODsample − ODmedium control)/(ODcell control − ODmedium control)) × 100 values were plotted against the logarithm of compound concentrations. Curves for the data obtained on Colo205 and Colo320 cells were fitted by GraphPad Prism software (2021, Graphpad Software, version 7.00, San Diego, CA, USA) using the sigmoidal dose–response model (comparing variable and fixed slopes). […]

Experiment [5] concerns Escherichia coli (ATCC 25922). Nature of the experiment: Antibacterial effect, MIC determination. In kind it is cell-based. The settings on record: visual inspection, read-out: minimum inhibitory concentration (MIC). Here is the method:
(§8) Escherichia coli (ATCC 25922), Klebsiella pneumoniae (ATCC 49618) were used as Gram-negative strains; and Staphylococcus aureus (ATCC 25923, methicillin-resistant (MRSA)), and Enterococcus faecalis (ATCC 29212) strains were applied as Gram-positive bacterial cultures in the experiments. MIC values of the complexes were determined in 96-well plates based on the Clinical and Laboratory Standard Institute guidelines (CLSI guidelines). The stock solutions of the compounds (dissolved in PBS buffer using 5 mM concentration) were diluted in 100 μL of Mueller Hinton Broth. Then, 10^−4 dilution of an overnight bacterial culture in 100 μL of medium was added to each well, with the exception of the medium control wells.

Experiment [6] relates to Klebsiella pneumoniae (ATCC 49618). Kind of experiment: Antibacterial effect, MIC determination. The settings on record: visual inspection, read-out: minimum inhibitory concentration (MIC). In kind it is cell-based. The protocol: as §8
Experiment [7] has as its system Enterococcus faecalis (ATCC 29212). Kind of experiment: Antibacterial effect, MIC determination. In kind it is cell-based. The conditions noted are these: visual inspection, read-out: minimum inhibitory concentration (MIC). Here is the method:
as §8

Experiment [8] relates to Staphylococcus aureus (ATCC 25923, methicillin-resistant (MRSA)). Kind of experiment: Antibacterial effect, MIC determination. In kind it is cell-based. The settings on record: methicillin-resistant S. aureus (MRSA), 18 h, visual inspection, read-out: minimum inhibitory concentration (MIC). The protocol: as §8
For experiment [9], the system named is MES-SA. Nature of the experiment: In vitro cytotoxicity, MES-SA cells (fluorescent protein readout). In kind it is cell-based, human. The conditions noted are these: 144 h exposure.
Source text: as §1, §6, §3, §7, §5

A word on the IC50: it is the concentration that gives 50% inhibition. The low end stands for greater potency in that assay, the high end for weaker potency in that assay.

Read-outs that look alike come from different tables or passages of the source.

On to `Cc1ccc(C(C)C)cc1.O=C(O)[C@@H]1CCC[NH+]1Cc1cc([N+](=O)[O-])c2ccc[n+]3c2c1[O][Ru-]3[Cl].[Cl-]` [RuCym-HQNO2-L-Pro, [RuCym(HQNO2-L-Pro)Cl]Cl], for which the IC50 was > 100 µM in experiment [1], > 400 µM in [3], > 100 µM in [4] and 166 ± 37 µM in [9]. For the same compound, the “time to reach equilibrium of complex formation” value in [2] (pH 1) is recorded as ~ 7 h; in experiment [2] (pH 4), ~ 45 min. For the same compound, the “Selectivity ratio IC50 (MES-SA)/IC50 (MES-SA/Dx5)” value in experiment [3] is reported as ≤ 0.42. In addition, the MIC in experiment [5] (18 h), in experiment [6] (18 h), in [7] (18 h) and in [8] was > 100 µM each time.
As for `O=C(O)[C@@H]1CCCN1Cc1cc([N+](=O)[O-])c2cccnc2c1O` [HQNO2-L-Pro, (2S)-1-((8-hydroxy-5-nitroquinolin-7-yl)methyl)pyrrolidin-1-ium-2-carboxylate], the half-inhibitory concentration (IC50) in experiment [1] (Homo sapiens, COLO 320) amounted to 32.4 ± 0.4 µM; in experiment [3] (Homo sapiens, MES-SA/Dx5) it was 97 ± 29 µM; in [4] (Homo sapiens, COLO 205), 34 ± 1 µM; in [9] (Homo sapiens, MES-SA), 226 ± 17 µM. In addition, the “Selectivity ratio IC50 (Colo205)/IC50 (Colo320)” value in [1] was 1.06. For the same compound, the “Selectivity ratio IC50 (MES-SA)/IC50 (MES-SA/Dx5)” value in experiment [3] is listed as 2.33. The MIC was > 100 µM in [5] (ATCC25922, 18 h); > 100 µM in experiment [6] (ATCC49618, 18 h); > 100 µM in [7] (ATCC29212, 18 h); > 100 µM in [8] (Staphylococcus aureus).
Turning to `CC1=C(C)[C](C)([Rh]([Cl])[O]c2c(C[NH+]3CCC[C@H]3C(=O)O)cc([N+](=O)[O-])c3cccnc23)C(C)=C1C.[Cl-]` [RhCp*-HQNO2-L-Pro, [RhCp*(HQNO2-L-Pro)Cl]Cl], the IC50 was 29.8 ± 0.2 µM in experiment [1], 106 ± 8 µM in experiment [3], 35 ± 1 µM in experiment [4] and 167 ± 38 µM in experiment [9]. In addition, in experiment [1], the “Selectivity ratio IC50 (Colo205)/IC50 (Colo320)” value is 1.16. In addition, the “time to reach equilibrium of complex formation” value in experiment [2] (pH 1) was ~ 5 min; in [2] (pH 4), ~ 1 min. In addition, the “Selectivity ratio IC50 (MES-SA)/IC50 (MES-SA/Dx5)” value in experiment [3] was 1.58. The MIC in [5] (18 h) was > 100 µM; in [6] (18 h), > 100 µM; in [7] (18 h), > 100 µM; in [8], 50 µM.

The record behind these values is PMC9820345, “Metal Complexes of a 5-Nitro-8-Hydroxyquinoline-Proline Hybrid with Enhanced Water Solubility Targeting Multidrug Resistant Cancer Cells” (International Journal of Molecular Sciences, 2022).
